Laboratory results: patent US20250230193A1, “CYCLIC COMPOUND HAVING SELECTIVE KRAS INHIBITORY EFFECT ON HRAS AND NRAS” (CHUGAI SEIYAKU KABUSHIKI KAISHA, priority 2022, published 2025)
Where a SMILES comes first, the peptide text is derived from it. Bridges are numbered along the chain shown (N, C = ends). [ ]: non-standard residue; d: D form. The star is where a group is joined. hPhe(3-Cl-4-CF3) = N[C@@H](CCc1ccc(C(F)(F)F)c(Cl)c1)C(=O)O; NPrPhe(4-CF3) = CCCN[C@@H](Cc1ccc(C(F)(F)F)cc1)C(=O)O; NMeGly(cPent) = CN[C@H](C(=O)O)C1CCCC1; Pro(4,4-F2) = O=C(O)[C@@H]1CC(F)(F)CN1; Piperidide(4-Me) = CC1CCN(*)CC1; NMeD = CN[C@@H](CC(=O)O)C(=O)O; NMeL = CN[C@@H](CC(C)C)C(=O)O; Morpholide = C1CN(*)CCO1; Ac5c = NC1(C(=O)O)CCCC1; Aze = O=C(O)[C@@H]1CCN1; Ac4c = NC1(C(=O)O)CCC1; NEtG = CCNCC(=O)O; Sar = CNCC(=O)O

Key:
[1] = target: GDP-bound NRAS wild-type protein (Homo sapiens, UniProt P01111); experiment: Binding to NRAS by surface plasmon resonance (SPR), Single Cycle Kinetics; conditions: SPR; for NRAS/KRAS (ratio of KD value for NRAS to KD value for KRAS): GDP-bound NRAS wild-type vs GDP-bound KRAS wild-type
Sequence of GDP-bound NRAS wild-type protein (P01111 whole entry): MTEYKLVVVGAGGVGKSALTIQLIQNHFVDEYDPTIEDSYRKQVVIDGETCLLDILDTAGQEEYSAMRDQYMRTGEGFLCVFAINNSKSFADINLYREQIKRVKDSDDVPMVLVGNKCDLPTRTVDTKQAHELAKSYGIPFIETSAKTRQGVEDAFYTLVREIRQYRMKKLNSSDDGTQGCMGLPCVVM

[2] = target: GDP-bound HRAS wild-type protein (Homo sapiens, UniProt P01112); experiment: Binding to HRAS by surface plasmon resonance (SPR), Single Cycle Kinetics; conditions: SPR; for HRAS/KRAS (ratio of KD value for HRAS to KD value for KRAS): GDP-bound HRAS wild-type vs GDP-bound KRAS wild-type
Sequence of GDP-bound HRAS wild-type protein (P01112 whole entry): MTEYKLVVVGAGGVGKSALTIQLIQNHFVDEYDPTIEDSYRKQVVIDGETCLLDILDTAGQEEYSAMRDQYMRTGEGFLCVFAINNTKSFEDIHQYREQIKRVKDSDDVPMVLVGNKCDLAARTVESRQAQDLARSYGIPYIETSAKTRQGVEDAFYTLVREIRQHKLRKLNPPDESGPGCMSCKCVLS

C#CC[C@H]1C(=O)N[C@@H]([C@@H](C)CC)C(=O)N(C)CC(=O)N(C)[C@H]2C/C=C\CCN(C2=O)[C@@H](Cc2ccc(C(F)(F)F)cc2)C(=O)N(C)CC(=O)N[C@@H](CCc2cc(F)c(C(F)(F)F)c(F)c2)C(=O)N2C[C@H](OCC)C[C@H]2C(=O)NC2(CCC2)C(=O)N(C)[C@@H](C2CCCC2)C(=O)N(C)[C@H](C(=O)N(C)CCC)CC(=O)N1C [PP1703]
NRAS/KRAS (ratio of KD value for NRAS to KD value for KRAS) [1]: A (a compound having 10 or more and less than 20 is denoted as A) | HRAS/KRAS (ratio of KD value for HRAS to KD value for KRAS) [2]: A (a compound having 10 or more and less than 20 is denoted as A)

CCCN1C(=O)CN(C)C(=O)CN(CC)C(=O)[C@H]([C@@H](C)CC)NC(=O)[C@H](CC(C)C)N(C)C(=O)C[C@@H](C(=O)N2CCOCC2)N(C)C(=O)[C@H](C2CCCC2)N(C)C(=O)C2(CCCC2)NC(=O)[C@@H]2CC(F)(F)CN2C(=O)[C@H](CCc2ccc(C(F)(F)F)c(Cl)c2)NC(=O)CN(C)C(=O)[C@@H]1Cc1ccc(C(F)(F)F)cc1 [PP0399] ([NMeL]I[NEtG][Sar][NPrPhe(4-CF3)][Sar][hPhe(3-Cl-4-CF3)][Pro(4,4-F2)][Ac5c][NMeGly(cPent)][NMeD]-Morpholide; lactam N-11)
NRAS/KRAS (ratio of KD for GDP-bound NRAS wild-type to KD for KRAS) [1]: B (a compound having 3 or more and less than 10 is denoted as B) | HRAS/KRAS (ratio of KD for GDP-bound HRAS wild-type to KD for KRAS) [2]: C (A compound having a KD ratio of 0.1 or more and less than 3 is denoted as C)

CC[C@H](C)[C@@H]1NC(=O)[C@H](CC(C)C)N(C)C(=O)C[C@@H](C(=O)N(C)C)N(C)C(=O)[C@H](C2CCCC2)N(C)C(=O)C2(CCC2)NC(=O)[C@@H]2CC(F)(F)CN2C(=O)[C@H](CCc2cc(F)c(C(F)(F)F)c(F)c2)NC(=O)CN(C)C(=O)[C@H](Cc2ccc(C(F)(F)F)cc2)N2CCCC[C@@H](C2=O)N(C)C(=O)CN(C)C1=O [PP0577]
NRAS/KRAS (ratio of KD value with respect to GDP-bound NRAS wild-type protein to KD value with respect to KRAS) [1]: C (A compound having a KD ratio of 0.1 or more and less than 3 is denoted as C) | HRAS/KRAS (ratio of KD value with respect to GDP-bound HRAS wild-type protein to KD value with respect to KRAS) [2]: C (A compound having a KD ratio of 0.1 or more and less than 3 is denoted as C)

CCCN1C(=O)[C@@H]2CCN2C(=O)CN(C)C(=O)[C@H]([C@@H](C)CC)NC(=O)[C@H](CC(C)C)N(C)C(=O)C[C@@H](C(=O)N2CCOCC2)NC(=O)[C@H](C2CCCC2)N(C)C(=O)C2(CCC2)NC(=O)[C@@H]2CC(F)(F)CN2C(=O)[C@H](CCc2ccc(C(F)(F)F)c(Cl)c2)NC(=O)CN(C)C(=O)[C@@H]1Cc1ccc(C(F)(F)F)cc1 [PP0352] ([NMeL]I[Sar][Aze][NPrPhe(4-CF3)][Sar][hPhe(3-Cl-4-CF3)][Pro(4,4-F2)][Ac4c][NMeGly(cPent)]D-Morpholide; lactam N-11)
NRAS/KRAS (ratio of KD for GDP-bound NRAS wild-type to KD for KRAS) [1]: C (A compound having a KD ratio of 0.1 or more and less than 3 is denoted as C) | HRAS/KRAS (ratio of KD for GDP-bound HRAS wild-type to KD for KRAS) [2]: B (a compound having 3 or more and less than 10 is denoted as B)

CCCN1C(=O)CN(C)C(=O)CN(C)C(=O)[C@H]([C@@H](C)CC)NC(=O)[C@H](CC(C)C)N(C)C(=O)C[C@@H](C(=O)N2CCC(C)CC2)N(C)C(=O)[C@H](C2CCCC2)N(C)C(=O)C2(CCCC2)NC(=O)[C@@H]2CCCN2C(=O)[C@H](CCc2ccc(C(F)(F)F)c(Cl)c2)NC(=O)CN(C)C(=O)[C@@H]1Cc1ccc(C(F)(F)F)cc1 [PP0176] ([NMeL]I[Sar][Sar][NPrPhe(4-CF3)][Sar][hPhe(3-Cl-4-CF3)]P[Ac5c][NMeGly(cPent)][NMeD]-{Piperidide(4-Me)}; lactam N-11)
NRAS/KRAS (ratio of KD for GDP-bound NRAS wild-type to KD for KRAS) [1]: B (a compound having 3 or more and less than 10 is denoted as B) | HRAS/KRAS (ratio of KD for GDP-bound HRAS wild-type to KD for KRAS) [2]: C (A compound having a KD ratio of 0.1 or more and less than 3 is denoted as C)

CC[C@H](C)[C@@H]1NC(=O)[C@H](CC2CC2)N(C)C(=O)C[C@@H](C(=O)N(C)CC)N(C)C(=O)[C@H](C2CCCC2)N(C)C(=O)C2(CC(C)(C)C2)NC(=O)[C@@H]2C[C@H](C)CN2C(=O)[C@H](CCc2ccc(C(F)(F)F)c(OC)c2)NC(=O)CN(C)C(=O)[C@H](Cc2ccc(C)cc2)N2CC/C=C\C[C@@H](C2=O)N(C)C(=O)CN(C)C1=O [PP1899]
NRAS/KRAS (ratio of KD value for NRAS to KD value for KRAS) [1]: A (a compound having 10 or more and less than 20 is denoted as A) | HRAS/KRAS (ratio of KD value for HRAS to KD value for KRAS) [2]: B (a compound having 3 or more and less than 10 is denoted as B)

CCO[C@@H]1C[C@H]2C(=O)NC3(CC(C)(C)C3)C(=O)N(C)[C@@H](C3CCCC3)C(=O)N(C)[C@H](C(=O)N(C)CC)CC(=O)N(C)[C@H]3C/C=C/c4ccc(cc4)C[C@@H](C(=O)N(C)CC(=O)N[C@@H](CCc4ccc(Cl)c(Cl)c4)C(=O)N2C1)N1CC/C=C\C[C@@H](C1=O)N(C)C(=O)CN(C)C(=O)[C@H]([C@@H](C)CC)NC3=O [PP3056]
NRAS/KRAS (ratio of KD value with respect to GDP-bound NRAS wild-type protein to KD value with respect to KRAS) ([1]; GDP-bound wild-type proteins): A (a compound having 10 or more and less than 20 is denoted as A) | HRAS/KRAS (ratio of KD value with respect to GDP-bound HRAS wild-type protein to KD value with respect to KRAS) ([2]; GDP-bound wild-type proteins): A (a compound having 10 or more and less than 20 is denoted as A)
